Experimental data published in patent publication US9518000B2, “Bicyclo [2.2.1] acid GPR120 modulators” (BRISTOL-MYERS SQUIBB COMPANY, priority 2013, dated 2016).

Target: human GPR120 (Homo sapiens (Human), UniProt Q5NUL3)
Assay: GPR120 pERK AlphaScreen SureFire Assay (human GPR120 pERK assay)
Type: cell-based
Conditions: CHOA12 or CHO-K1 cells stably transfected with the short form of human GPR120 receptor; phosphorylated ERK; read-out: EC50 values measured in the human GPR120 pERK assay
Method in brief: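 CHO cells (CHOA12 or CHO-K1) stably expressing short-form human GPR120 were serum-starved for 2 h, then exposed to compound for 7 min at 37 °C over an 11-point range of 33.33 μM–0.56 nM final. ERK phosphorylation was read by AlphaScreen SureFire and normalised to DMSO and to 50 μM linolenic acid. EC50 was derived from a 4-parameter logistic fit.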

human GPR120, sequence (Q5NUL3 whole entry): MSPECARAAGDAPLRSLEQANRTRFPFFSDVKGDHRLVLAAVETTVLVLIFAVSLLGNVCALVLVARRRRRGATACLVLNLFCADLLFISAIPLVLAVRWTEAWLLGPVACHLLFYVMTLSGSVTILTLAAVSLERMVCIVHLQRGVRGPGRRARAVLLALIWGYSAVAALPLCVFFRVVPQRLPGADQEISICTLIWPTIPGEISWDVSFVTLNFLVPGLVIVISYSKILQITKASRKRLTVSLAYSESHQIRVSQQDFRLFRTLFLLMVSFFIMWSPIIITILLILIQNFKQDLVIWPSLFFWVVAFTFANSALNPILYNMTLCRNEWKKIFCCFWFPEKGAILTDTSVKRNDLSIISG

SMILES	EC50
O=C(O)CCOC12CCC(OCc3cc(F)cc(Oc4ccccc4)c3)(CC1)C2 [Example 79, 3-(4-(3-Fluoro-5-phenoxybenzyloxy)bicyclo[2.2.1]heptan-1-yloxy)propanoic acid]	270 nM
CS(=O)(=O)NC(=O)CCCC12CCC(OCc3cc(F)ccc3Oc3ccccc3)(CC1)C2 [Example 83, 4-(4-(5-Fluoro-2-phenoxybenzyloxy)bicyclo[2.2.1]heptan-1-yl)-N-(methylsulfonyl) butanamide]	400 nM
CNC(=O)CCCC12CCC(OCc3cccc(Oc4ccccc4)c3)(CC1)C2 [Example 84, N-Methyl-4-(4-((3-phenoxybenzyl)oxy)bicyclo[2.2.1]heptan-1-yl)butanamide]	3030 nM
O=C(CCCC12CCC(OCc3cccc(Oc4ccccc4)c3)(CC1)C2)N1CC(O)C1 [Example 85, 1-(3-Hydroxyazetidin-1-yl)-4-(4-((3-phenoxybenzyl)oxy)bicyclo[2.2.1]heptan-1-yl)butan-1-one]	2400 nM
O=C(O)CCC12CCC(OCCc3ccccc3Oc3ccccc3)(CC1)C2 [Example 86, 3-(4-(2-Phenoxyphenethoxy)bicyclo[2.2.1]heptan-1-yl)propanoic acid]	6990 nM
O=C(O)CCC12CCC(OCCc3cccc4ccccc34)(CC1)C2 [Example 87, 3-(4-(2-(naphthalen-1-yl)ethoxy)bicyclo [2.2.1]heptan-1-yl) propanoic acid]	1310 nM
O=C(O)CCC12CCC(OCCc3cc(OC(F)(F)F)ccc3F)(CC1)C2 [Example 89, 3-((1S,4R)-4-(2-fluoro-5-(trifluoromethoxy)phenethoxy)bicyclo [2.2.1]heptan-1-yl) propanoic acid]	2640 nM
O=C(O)CCC12CCC(OCc3cc(F)cc(Oc4ccccc4)c3)(CC1)C2 [Example 90, 3-(4-((3-fluoro-5-phenoxybenzyl)oxy)bicyclo [2.2.1]heptan-1-yl) propanoic acid]	1220 nM
O=C(O)/C=C/CC12CCC(OCc3cccc(Oc4ccccc4)c3)(CC1)C2 [Example 94, (E)-4-(4-((3-Phenoxybenzyl)oxy)bicyclo[2.2.1]heptan-1-yl)but-2-enoic acid]	630 nM
O=C(O)C1CC1CC12CCC(OCc3cccc(Oc4ccccc4)c3)(CC1)C2 (stereo not drawn) [Example 95, 2-((4-((3-Phenoxybenzyl)oxy)bicyclo[2.2.1]heptan-1-yl)methyl)cyclopropanecarboxylic acid]	510 nM

Next, values leading:

EC50	SMILES
600 nM	O=C(O)[C@H]1C[C@@H]1CC12CCC(OCc3cc(F)cc(Oc4ccccc4)c3)(CC1)C2 (single isomer, unassigned) [Example 92]
1620 nM	O=C(O)COCC12CCC(OCc3cc(F)cc(Oc4ccccc4)c3)(CC1)C2 [Example 73, 2-((4-(3-fluoro-5-phenoxybenzyloxy)bicyclo [2.2.1]heptan-1-yl)methoxy) acetic acid]
2640 nM	O=C(O)CCC12CCC(OCCc3cccc(Oc4ccccc4)c3)(CC1)C2 [Example 88, 3-(4-(3-phenoxyphenethoxy)bicyclo[2.2.1]heptan-1-yl)propanoic acid]
2680 nM	NC(=O)CNC(=O)CCCC12CCC(OCc3cc(F)cc(Oc4ccccc4)c3)(CC1)C2 [Example 98, N-(2-Amino-2-oxoethyl)-4-(4-((3-fluoro-5-phenoxybenzyl)oxy)bicyclo[2.2.1]heptan-1-yl)butanamide]
6360 nM	OCCC12CCC(OCc3cc(F)cc(Oc4ccccc4)c3)(CC1)C2 [Example 99, 2-(4-((3-Fluoro-5-phenoxybenzyl)oxy)bicyclo[2.2.1]heptan-1-yl)ethanol]
570 nM	O=C(O)COCCC12CCC(OCc3cc(F)cc(Oc4ccccc4)c3)(CC1)C2 [Example 100, 2-(2-(4-((3-Fluoro-5-phenoxybenzyl)oxy)bicyclo[2.2.1]heptan-1-yl)ethoxy)acetic acid]

Test system: C57BL/6 mice
Assay: Acute Oral Glucose Tolerance Test
Type: in vivo
Conditions: oral glucose tolerance test in mice at dose of 30 mg/kg; AUC t=0-120 min compared to vehicle
Description: In Vivo GPR120 Assays 1) Acute Oral Glucose Tolerance Test
C57BL/6 mice were housed individually and fed a standard rodent chow diet. At approximately 11 weeks age, after a 5 h fast, these mice were orally treated with vehicle or test compounds 60 min before a glucose challenge (2 g/kg). Blood glucose levels were determined from tail bleeds taken at −60, 0, 15, 30, 60 and 120 min after the glucose challenge. The blood glucose excursion profile from t=0-120 min was used to calculate an area under the curve (AUC) for compound treatment. This AUC for compound treatment is compared to vehicle treatment.

SMILES	reduced glucose AUC levels
O=C(O)[C@H]1C[C@@H]1CC12CCC(OCc3cc(F)cc(Oc4ccccc4)c3)(CC1)C2 (single isomer, unassigned) [Example 92]	25%
O=C(O)COCC12CCC(OCc3cc(F)cc(Oc4ccccc4)c3)(CC1)C2 [Example 73, 2-((4-(3-fluoro-5-phenoxybenzyloxy)bicyclo [2.2.1]heptan-1-yl)methoxy) acetic acid]	21%
